{
  "source": "patent US20230365546A1",
  "about": "“5-SUBSTITUTED INDOLE 3-AMIDE DERIVATIVES, PREPARATION METHOD AND USE THEREOF” (ORIGIANT PHARMACEUTICAL CO., LTD, priority 2020, published 2023)",
  "key": {"MKK3(h)": {"target": "MKK3(h) (Homo sapiens (Human), UniProt P46734)", "test": "Kinase Profiler 10 μM panel", "experimental": "(§1) In vitro kinase assays were conducted using Kinase Profiler services provided by Eurofins. The experimental method was as follows: the small molecule compound to be tested (0.001-10 μM), the protein kinase to be tested were incubated with a buffer containing substrate, 10 mM magnesium acetate, and [γ-^33P-ATP], the reaction was started by adding Mg\\TPmix, after incubation for a period of time at room temperature, a 3% phosphate solution was added to the buffer to stop the reaction. Subsequently, 10 μL of the reaction mixture was quantitatively pipetted onto P30 filter paper, which was washed three times with 75 mM phosphate solution and then once with methanol. The P30 filter paper was air-dried and scintillation fluid was added for scintillation counting."}, "[1]": {"tested_on": "422 kinases (including mutants)", "test": "Kinase selectivity profile over the Eurofins panel", "type": "biochemical", "conditions": "10 μM, Tables 3 and 4, FIGS. 1 and 2", "excerpt": "The selectivity profiles for Compounds 34 and 94 were plotted according to the data in Table 3 and Table 4. Wherein the red circular spot indicated the kinase were inhibited obviously, and the larger the radius of the red spot, the higher the inhibition against the kinase, and vice versa."}, "EphB2(h)": {"target": "EphB2(h) (Homo sapiens (Human), UniProt P29323)", "sequence (P29323 19-1055)": "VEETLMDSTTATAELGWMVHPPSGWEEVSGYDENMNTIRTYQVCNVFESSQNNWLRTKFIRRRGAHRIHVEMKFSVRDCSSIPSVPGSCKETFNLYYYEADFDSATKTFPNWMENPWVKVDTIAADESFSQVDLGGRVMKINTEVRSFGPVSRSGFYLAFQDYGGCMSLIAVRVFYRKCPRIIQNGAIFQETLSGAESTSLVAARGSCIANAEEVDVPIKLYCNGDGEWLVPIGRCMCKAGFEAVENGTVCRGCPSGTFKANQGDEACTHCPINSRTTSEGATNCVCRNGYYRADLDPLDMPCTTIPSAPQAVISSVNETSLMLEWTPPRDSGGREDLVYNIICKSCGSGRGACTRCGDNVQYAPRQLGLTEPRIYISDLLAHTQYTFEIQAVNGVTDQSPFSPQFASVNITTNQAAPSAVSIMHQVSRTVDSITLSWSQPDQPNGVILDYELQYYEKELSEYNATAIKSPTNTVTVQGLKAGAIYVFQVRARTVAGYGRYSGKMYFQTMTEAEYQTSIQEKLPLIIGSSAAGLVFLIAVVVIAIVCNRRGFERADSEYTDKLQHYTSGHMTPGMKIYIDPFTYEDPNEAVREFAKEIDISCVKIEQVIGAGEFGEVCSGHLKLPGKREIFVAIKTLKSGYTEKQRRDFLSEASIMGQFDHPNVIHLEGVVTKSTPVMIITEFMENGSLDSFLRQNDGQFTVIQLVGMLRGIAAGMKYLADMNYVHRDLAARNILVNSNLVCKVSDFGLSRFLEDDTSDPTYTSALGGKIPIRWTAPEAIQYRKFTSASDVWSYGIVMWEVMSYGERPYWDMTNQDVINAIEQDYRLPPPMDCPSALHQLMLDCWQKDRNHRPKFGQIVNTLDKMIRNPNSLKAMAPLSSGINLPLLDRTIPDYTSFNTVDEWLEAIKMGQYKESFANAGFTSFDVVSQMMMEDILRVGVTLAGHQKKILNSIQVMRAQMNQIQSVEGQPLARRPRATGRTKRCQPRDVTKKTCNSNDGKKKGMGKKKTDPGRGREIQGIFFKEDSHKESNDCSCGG", "test": "Kinase Profiler 10 μM panel", "experimental": "as §1"}, "MEK2(h)": {"target": "MEK2(h) (Homo sapiens (Human), UniProt P36507)", "test": "Kinase Profiler 10 μM panel", "experimental": "as §1"}, "EphA8(h)": {"target": "EphA8(h) (Homo sapiens (Human), UniProt P29322)", "sequence (P29322 28-1005)": "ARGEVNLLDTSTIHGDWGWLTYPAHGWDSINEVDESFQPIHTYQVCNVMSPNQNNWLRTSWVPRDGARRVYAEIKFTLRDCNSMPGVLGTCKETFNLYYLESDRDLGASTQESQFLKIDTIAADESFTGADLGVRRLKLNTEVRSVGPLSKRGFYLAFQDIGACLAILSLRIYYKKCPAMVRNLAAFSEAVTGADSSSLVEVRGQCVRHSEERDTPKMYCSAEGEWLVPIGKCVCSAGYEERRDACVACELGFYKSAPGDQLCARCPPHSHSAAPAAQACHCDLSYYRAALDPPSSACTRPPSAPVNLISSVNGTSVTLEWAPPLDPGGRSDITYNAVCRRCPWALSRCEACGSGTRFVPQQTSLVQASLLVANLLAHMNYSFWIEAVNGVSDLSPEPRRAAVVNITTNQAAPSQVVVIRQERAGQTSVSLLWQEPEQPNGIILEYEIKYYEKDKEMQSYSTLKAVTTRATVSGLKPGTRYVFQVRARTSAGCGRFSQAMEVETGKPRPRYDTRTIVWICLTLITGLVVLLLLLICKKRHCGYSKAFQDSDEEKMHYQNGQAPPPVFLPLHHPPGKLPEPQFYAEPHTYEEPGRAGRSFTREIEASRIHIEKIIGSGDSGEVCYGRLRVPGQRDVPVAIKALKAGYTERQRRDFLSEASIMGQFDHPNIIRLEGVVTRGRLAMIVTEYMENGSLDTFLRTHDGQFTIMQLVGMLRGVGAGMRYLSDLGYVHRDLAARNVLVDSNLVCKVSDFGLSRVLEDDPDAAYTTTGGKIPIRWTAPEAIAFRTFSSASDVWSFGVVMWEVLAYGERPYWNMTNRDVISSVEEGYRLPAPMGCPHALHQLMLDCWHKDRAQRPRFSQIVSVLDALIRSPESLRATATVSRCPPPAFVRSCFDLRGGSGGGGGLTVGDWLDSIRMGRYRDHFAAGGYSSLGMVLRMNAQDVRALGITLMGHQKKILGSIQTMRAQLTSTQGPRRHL", "test": "Kinase Profiler 10 μM panel", "experimental": "as §1"}, "[2]": {"target": "PI3 Kinase (p110d/p85a)(m) (Mus musculus (Mouse), UniProt O35904)", "test": "Kinase Profiler 10 μM panel", "experimental": "as §1"}, "[3]": {"target": "PI3 Kinase (p110a(E545K)/p85a)(m) (Mus musculus (Mouse), UniProt P42337, E545K)", "sequence (P42337 whole entry E545K)": "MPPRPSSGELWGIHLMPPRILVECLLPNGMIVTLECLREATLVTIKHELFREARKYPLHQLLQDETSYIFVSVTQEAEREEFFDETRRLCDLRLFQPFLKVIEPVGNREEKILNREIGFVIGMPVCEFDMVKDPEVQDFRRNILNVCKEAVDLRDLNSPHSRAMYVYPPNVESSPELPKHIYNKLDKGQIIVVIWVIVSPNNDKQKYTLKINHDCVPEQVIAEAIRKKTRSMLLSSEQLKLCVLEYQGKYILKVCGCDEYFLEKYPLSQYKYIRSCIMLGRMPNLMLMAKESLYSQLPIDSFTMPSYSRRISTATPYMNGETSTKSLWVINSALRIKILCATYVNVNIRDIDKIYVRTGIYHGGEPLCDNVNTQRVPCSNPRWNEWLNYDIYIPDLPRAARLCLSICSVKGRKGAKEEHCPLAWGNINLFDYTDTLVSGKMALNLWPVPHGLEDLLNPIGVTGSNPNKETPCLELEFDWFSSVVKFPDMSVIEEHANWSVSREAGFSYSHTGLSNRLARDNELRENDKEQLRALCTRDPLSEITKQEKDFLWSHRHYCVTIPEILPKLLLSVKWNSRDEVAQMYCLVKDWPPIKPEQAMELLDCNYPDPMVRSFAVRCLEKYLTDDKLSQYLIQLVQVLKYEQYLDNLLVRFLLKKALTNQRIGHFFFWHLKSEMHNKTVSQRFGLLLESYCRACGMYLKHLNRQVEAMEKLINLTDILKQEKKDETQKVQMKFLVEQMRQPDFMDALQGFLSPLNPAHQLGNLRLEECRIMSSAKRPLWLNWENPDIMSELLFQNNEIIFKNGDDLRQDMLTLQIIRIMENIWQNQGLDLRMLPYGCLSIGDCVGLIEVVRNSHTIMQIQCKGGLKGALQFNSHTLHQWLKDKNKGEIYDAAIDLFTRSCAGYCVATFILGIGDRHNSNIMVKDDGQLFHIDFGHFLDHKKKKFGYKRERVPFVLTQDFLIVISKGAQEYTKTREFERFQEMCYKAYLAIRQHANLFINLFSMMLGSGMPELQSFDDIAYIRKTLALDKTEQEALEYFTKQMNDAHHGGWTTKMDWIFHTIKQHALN", "sequence (P26450 whole entry partner)": "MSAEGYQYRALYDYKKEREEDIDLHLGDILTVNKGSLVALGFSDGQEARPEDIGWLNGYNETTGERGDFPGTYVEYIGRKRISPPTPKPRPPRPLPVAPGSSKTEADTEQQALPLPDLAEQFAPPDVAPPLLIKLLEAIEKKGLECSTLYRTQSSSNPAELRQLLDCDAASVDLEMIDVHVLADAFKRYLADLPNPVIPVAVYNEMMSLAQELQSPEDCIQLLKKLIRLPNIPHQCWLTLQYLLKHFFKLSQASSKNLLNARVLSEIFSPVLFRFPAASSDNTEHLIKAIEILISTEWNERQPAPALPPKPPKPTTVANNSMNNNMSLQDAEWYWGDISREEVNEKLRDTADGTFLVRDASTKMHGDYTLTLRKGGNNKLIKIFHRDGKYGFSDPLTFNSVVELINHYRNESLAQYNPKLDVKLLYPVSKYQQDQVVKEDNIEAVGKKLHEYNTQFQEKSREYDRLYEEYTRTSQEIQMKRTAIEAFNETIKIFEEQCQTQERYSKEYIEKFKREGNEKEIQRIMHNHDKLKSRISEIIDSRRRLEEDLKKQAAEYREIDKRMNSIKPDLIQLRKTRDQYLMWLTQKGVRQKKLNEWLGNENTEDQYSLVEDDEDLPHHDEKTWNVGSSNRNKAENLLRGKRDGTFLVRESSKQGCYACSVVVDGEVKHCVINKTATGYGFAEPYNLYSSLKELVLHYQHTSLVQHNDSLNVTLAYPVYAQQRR", "test": "Kinase Profiler 10 μM panel", "experimental": "as §1"}, "Mer(h)": {"target": "Mer(h) (Homo sapiens (Human), UniProt Q12866)", "test": "Kinase Profiler 10 μM panel", "experimental": "as §1"}, "Abl (M351T)(h)": {"target": "Abl (M351T)(h) (Homo sapiens (Human), UniProt P00519, M351T)", "test": "Kinase Profiler 10 μM panel", "experimental": "as §1"}, "CDK5/p35(h)": {"target": "CDK5/p35(h) (Homo sapiens (Human), UniProt Q00535)", "test": "Kinase Profiler 10 μM panel", "experimental": "as §1"}, "MSK1(h)": {"target": "MSK1(h) (Homo sapiens (Human), UniProt O75582)", "test": "Kinase Profiler 10 μM panel", "experimental": "as §1"}, "TAK1(h)": {"target": "TAK1(h) (Homo sapiens (Human), UniProt O43318)", "test": "Kinase Profiler 10 μM panel", "experimental": "as §1"}, "Flt4(h)": {"target": "Flt4(h) (Homo sapiens (Human), UniProt P35916)", "test": "Kinase Profiler 10 μM panel", "experimental": "as §1"}, "AMPKα1(h)": {"target": "AMPKα1(h) (Homo sapiens (Human), UniProt Q13131)", "test": "Kinase Profiler 10 μM panel", "experimental": "as §1"}, "GSK3α(h)": {"target": "GSK3α(h) (Homo sapiens (Human), UniProt P49840)", "test": "Kinase Profiler 10 μM panel", "experimental": "as §1"}, "STK33(h)": {"target": "STK33(h) (Homo sapiens (Human), UniProt Q9BYT3)", "test": "Kinase Profiler 10 μM panel", "experimental": "as §1"}, "BMPR2(h)": {"target": "BMPR2(h) (Homo sapiens (Human), UniProt Q13873)", "test": "Kinase Profiler 10 μM panel", "experimental": "as §1"}, "EGFR(T790M,L858R)(h)": {"target": "EGFR(T790M,L858R)(h) (Homo sapiens (Human), UniProt P00533, L858R/T790M)", "test": "Kinase Profiler 10 μM panel", "experimental": "as §1"}, "CDK3/cyclinE(h)": {"target": "CDK3/cyclinE(h) (Homo sapiens (Human), UniProt Q00526)", "test": "Kinase Profiler 10 μM panel", "experimental": "as §1"}, "ROCK-I(h)": {"target": "ROCK-I(h) (Homo sapiens (Human), UniProt Q13464)", "test": "Kinase Profiler 10 μM panel", "experimental": "as §1"}, "PEK(h)": {"target": "PEK(h) (Homo sapiens (Human), UniProt Q9NZJ5)", "test": "Kinase Profiler 10 μM panel", "experimental": "as §1"}, "Ret(h)": {"target": "Ret(h) (Homo sapiens (Human), UniProt P07949)", "test": "Kinase Profiler 10 μM panel", "experimental": "as §1"}, "PDGFRβ(h)": {"target": "PDGFRβ(h) (Homo sapiens (Human), UniProt P09619)", "test": "Kinase Profiler 10 μM panel", "experimental": "as §1"}, "EGFR(L861Q)(h)": {"target": "EGFR(L861Q)(h) (Homo sapiens (Human), UniProt P00533, L861Q)", "test": "Kinase Profiler 10 μM panel", "experimental": "as §1"}, "IGF-1R(h), activated": {"target": "IGF-1R(h), activated (Homo sapiens (Human), UniProt P08069)", "test": "Kinase Profiler 10 μM panel", "experimental": "as §1"}, "TrkB(h)": {"target": "TrkB(h) (Homo sapiens (Human), UniProt Q16620)", "sequence (Q16620 32-822)": "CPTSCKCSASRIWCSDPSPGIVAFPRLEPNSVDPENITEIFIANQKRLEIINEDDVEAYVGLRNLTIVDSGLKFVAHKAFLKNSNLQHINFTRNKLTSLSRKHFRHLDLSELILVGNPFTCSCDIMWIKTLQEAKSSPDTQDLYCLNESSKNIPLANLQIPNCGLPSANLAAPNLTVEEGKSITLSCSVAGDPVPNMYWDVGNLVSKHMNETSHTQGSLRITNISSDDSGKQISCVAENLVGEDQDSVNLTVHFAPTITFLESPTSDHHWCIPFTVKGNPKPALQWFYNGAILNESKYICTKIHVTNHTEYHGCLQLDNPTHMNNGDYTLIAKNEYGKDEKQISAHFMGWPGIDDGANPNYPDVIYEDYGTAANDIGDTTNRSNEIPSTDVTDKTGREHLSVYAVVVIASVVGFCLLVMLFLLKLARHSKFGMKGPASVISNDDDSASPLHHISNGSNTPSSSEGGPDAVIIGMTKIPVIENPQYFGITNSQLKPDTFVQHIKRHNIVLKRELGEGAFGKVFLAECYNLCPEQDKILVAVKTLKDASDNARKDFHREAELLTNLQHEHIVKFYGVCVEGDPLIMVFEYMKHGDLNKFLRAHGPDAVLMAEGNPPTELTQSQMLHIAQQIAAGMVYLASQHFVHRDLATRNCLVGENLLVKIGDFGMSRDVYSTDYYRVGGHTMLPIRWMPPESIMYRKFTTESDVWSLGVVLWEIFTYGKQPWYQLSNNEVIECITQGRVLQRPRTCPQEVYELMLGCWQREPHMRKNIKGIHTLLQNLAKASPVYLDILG", "test": "Kinase Profiler 10 μM panel", "experimental": "as §1"}, "CDK5/p25(h)": {"target": "CDK5/p25(h) (Homo sapiens (Human), UniProt Q00535)", "test": "Kinase Profiler 10 μM panel", "experimental": "as §1"}, "PKCη(h)": {"target": "PKCη(h) (Homo sapiens (Human), UniProt P24723)", "test": "Kinase Profiler 10 μM panel", "experimental": "as §1"}, "PKBγ(h)": {"target": "PKBγ(h) (Homo sapiens (Human), UniProt Q9Y243)", "test": "Kinase Profiler 10 μM panel", "experimental": "as §1"}, "Met(Y1248D)(h)": {"target": "Met(Y1248D)(h) (Homo sapiens (Human), UniProt P08581, Y1230D)", "sequence (P08581 956-1390 Y1230D limits assumed)": "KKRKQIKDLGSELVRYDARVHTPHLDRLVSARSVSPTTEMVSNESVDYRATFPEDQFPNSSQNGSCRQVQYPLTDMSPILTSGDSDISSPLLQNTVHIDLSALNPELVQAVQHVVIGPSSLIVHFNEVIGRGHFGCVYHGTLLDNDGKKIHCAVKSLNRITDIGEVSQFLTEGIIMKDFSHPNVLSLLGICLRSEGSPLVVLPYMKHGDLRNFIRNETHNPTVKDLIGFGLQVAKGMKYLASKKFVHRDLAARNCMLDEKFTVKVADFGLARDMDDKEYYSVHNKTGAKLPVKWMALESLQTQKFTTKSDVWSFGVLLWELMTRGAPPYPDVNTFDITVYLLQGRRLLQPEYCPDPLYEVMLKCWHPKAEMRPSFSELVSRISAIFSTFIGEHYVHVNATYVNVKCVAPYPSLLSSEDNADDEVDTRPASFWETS", "test": "Kinase Profiler 10 μM panel", "experimental": "as §1"}, "CK1(y)": {"tested_on": "CK1(y)", "test": "Kinase Profiler 10 μM panel", "experimental": "as §1"}, "LOK(h)": {"target": "LOK(h) (Homo sapiens (Human), UniProt O94804)", "test": "Kinase Profiler 10 μM panel", "experimental": "as §1"}},
  "data": [
    {"compound": "C[C@H](NC(=O)c1c[nH]c2ccc(-c3ccc4nc(NC(=O)C5CC5)sc4c3)cc12)c1cccc(F)c1", "note": "[Compound 34, (S)-5-(2-(cyclopropanecarboxamido)benzo[d]thiazol-6-yl)-N-(1-(3-fluorophenyl)ethyl)-1H-indole-3-carboxamide]", "values": [
      {"measurement": "Inhibition ratio", "setting": "MKK3(h)", "value": 35, "unit": "%"},
      {"measurement": "Kinase selectivity", "setting": "[1]", "value": "good kinase selectivity"},
      {"measurement": "Inhibition ratio", "setting": "EphB2(h)", "value": 42, "unit": "%"},
      {"measurement": "Inhibition ratio", "setting": "MEK2(h)", "value": 8, "unit": "%"},
      {"measurement": "Inhibition ratio", "setting": "EphA8(h)", "value": 85, "unit": "%"},
      {"measurement": "Inhibition ratio", "setting": "[2]", "value": 31, "unit": "%"},
      {"measurement": "Inhibition ratio", "setting": "[3]", "value": 24, "unit": "%"},
      {"measurement": "Inhibition ratio", "setting": "Mer(h)", "value": 97, "unit": "%"},
      {"measurement": "Inhibition ratio", "setting": "Abl (M351T)(h)", "value": 97, "unit": "%"},
      {"measurement": "Inhibition ratio", "setting": "CDK5/p35(h)", "value": "−7", "unit": "%"},
      {"measurement": "Inhibition ratio", "setting": "MSK1(h)", "value": 53, "unit": "%"},
      {"measurement": "Inhibition ratio", "setting": "TAK1(h)", "value": 45, "unit": "%"},
      {"measurement": "Inhibition ratio", "setting": "Flt4(h)", "value": 93, "unit": "%"},
      {"measurement": "Inhibition ratio", "setting": "AMPKα1(h)", "value": 4, "unit": "%"},
      {"measurement": "Inhibition ratio", "setting": "GSK3α(h)", "value": 10, "unit": "%"},
      {"measurement": "Inhibition ratio", "setting": "STK33(h)", "value": 4, "unit": "%"},
      {"measurement": "Inhibition ratio", "setting": "BMPR2(h)", "value": 30, "unit": "%"},
      {"measurement": "Inhibition ratio", "setting": "EGFR(T790M,L858R)(h); EGFR(T790M,L858R)(h)", "value": 84, "unit": "%"},
      {"measurement": "Inhibition ratio", "setting": "CDK3/cyclinE(h)", "value": "−13", "unit": "%"},
      {"measurement": "Inhibition ratio", "setting": "ROCK-I(h)", "value": 15, "unit": "%"},
      {"measurement": "Inhibition ratio", "setting": "PEK(h)", "value": 1, "unit": "%"},
      {"measurement": "Inhibition ratio", "setting": "Ret(h)", "value": 96, "unit": "%"},
      {"measurement": "Inhibition ratio", "setting": "PDGFRβ(h)", "value": 9, "unit": "%"},
      {"measurement": "Inhibition ratio", "setting": "EGFR(L861Q)(h)", "value": 49, "unit": "%"},
      {"measurement": "Inhibition ratio", "setting": "IGF-1R(h), activated", "value": 21, "unit": "%"},
      {"measurement": "Inhibition ratio", "setting": "TrkB(h)", "value": 100, "unit": "%"},
      {"measurement": "Inhibition ratio", "setting": "CDK5/p25(h)", "value": 16, "unit": "%"},
      {"measurement": "Inhibition ratio", "setting": "PKCη(h)", "value": "−3", "unit": "%"},
      {"measurement": "Inhibition ratio", "setting": "PKBγ(h)", "value": 11, "unit": "%"},
      {"measurement": "Inhibition ratio", "setting": "Met(Y1248D)(h)", "value": 99, "unit": "%"},
      {"measurement": "Inhibition ratio", "setting": "CK1(y)", "value": 25, "unit": "%"},
      {"measurement": "Inhibition ratio", "setting": "LOK(h)", "value": 85, "unit": "%"}
    ]},
    {"compound": "C[C@H](NC(=O)c1cn(C)c2ccc(-c3ccn4nc(NC(=O)C5CC5)nc4c3)cc12)c1cccc(F)c1", "note": "[Compound 94, (S)-5-(2-(cyclopropanecarboxamido)-[1,2,4]triazolo[1,5-a]pyridin-7-yl)-N-(1-(3-fluorophenyl)ethyl)-1-methyl-1H-indole-3-carboxamide]", "values": [
      {"measurement": "Inhibition ratio/%", "setting": "MKK3(h)", "value": 38, "unit": "%"},
      {"measurement": "Kinase selectivity", "setting": "[1]", "value": "good kinase selectivity"},
      {"measurement": "Inhibition ratio/%", "setting": "EphB2(h)", "value": 48, "unit": "%"},
      {"measurement": "Inhibition ratio/%", "setting": "MEK2(h)", "value": 13, "unit": "%"},
      {"measurement": "Inhibition ratio/%", "setting": "EphA8(h)", "value": 4, "unit": "%"},
      {"measurement": "Inhibition ratio/%", "setting": "[2]", "value": 44, "unit": "%"},
      {"measurement": "Inhibition ratio/%", "setting": "[3]", "value": 32, "unit": "%"},
      {"measurement": "Inhibition ratio/%", "setting": "Mer(h)", "value": "−6", "unit": "%"},
      {"measurement": "Inhibition ratio/%", "setting": "Abl (M351T)(h)", "value": 29, "unit": "%"},
      {"measurement": "Inhibition ratio/%", "setting": "CDK5/p35(h)", "value": "−8", "unit": "%"},
      {"measurement": "Inhibition ratio/%", "setting": "MSK1(h)", "value": "−20", "unit": "%"},
      {"measurement": "Inhibition ratio/%", "setting": "TAK1(h)", "value": 9, "unit": "%"},
      {"measurement": "Inhibition ratio/%", "setting": "Flt4(h)", "value": 34, "unit": "%"},
      {"measurement": "Inhibition ratio/%", "setting": "AMPKα1(h)", "value": 57, "unit": "%"},
      {"measurement": "Inhibition ratio/%", "setting": "GSK3α(h)", "value": 48, "unit": "%"},
      {"measurement": "Inhibition ratio/%", "setting": "STK33(h)", "value": 23, "unit": "%"},
      {"measurement": "Inhibition ratio/%", "setting": "BMPR2(h)", "value": "−6", "unit": "%"},
      {"measurement": "Inhibition ratio/%", "setting": "EGFR(T790M,L858R)(h); EGFR(T790M, L858R)(h)", "value": 52, "unit": "%"},
      {"measurement": "Inhibition ratio/%", "setting": "CDK3/cyclinE(h)", "value": 65, "unit": "%"},
      {"measurement": "Inhibition ratio/%", "setting": "ROCK-I(h)", "value": "−10", "unit": "%"},
      {"measurement": "Inhibition ratio/%", "setting": "PEK(h)", "value": 36, "unit": "%"},
      {"measurement": "Inhibition ratio/%", "setting": "Ret(h)", "value": 50, "unit": "%"},
      {"measurement": "Inhibition ratio/%", "setting": "PDGFRβ(h)", "value": 49, "unit": "%"},
      {"measurement": "Inhibition ratio/%", "setting": "EGFR(L861Q)(h)", "value": 75, "unit": "%"},
      {"measurement": "Inhibition ratio/%", "setting": "IGF-1R(h), activated", "value": "−17", "unit": "%"},
      {"measurement": "Inhibition ratio/%", "setting": "TrkB(h)", "value": 0, "unit": "%"},
      {"measurement": "Inhibition ratio/%", "setting": "CDK5/p25(h)", "value": 46, "unit": "%"},
      {"measurement": "Inhibition ratio/%", "setting": "PKCη(h)", "value": 27, "unit": "%"},
      {"measurement": "Inhibition ratio/%", "setting": "PKBγ(h)", "value": 31, "unit": "%"},
      {"measurement": "Inhibition ratio/%", "setting": "Met(Y1248D)(h)", "value": 13, "unit": "%"},
      {"measurement": "Inhibition ratio/%", "setting": "CK1(y)", "value": 30, "unit": "%"},
      {"measurement": "Inhibition ratio/%", "setting": "LOK(h)", "value": 25, "unit": "%"}
    ]}
  ]
}
